Target: Coagulation factor X (Homo sapiens, UniProt P00742)
Assay: Inhibition of factor Xa (unknown origin) using Bz-lle-Glu-Gly-Arg-pNA as chromogenic substrate preincubated for 30 mins followed by substrate addition by absorbance based analysis

Sequence of Coagulation factor X (P00742 41-179 limits assumed): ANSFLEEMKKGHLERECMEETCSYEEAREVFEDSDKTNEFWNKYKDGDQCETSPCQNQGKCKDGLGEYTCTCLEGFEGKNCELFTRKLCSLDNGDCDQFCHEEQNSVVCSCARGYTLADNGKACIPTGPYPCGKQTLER
Sequence of Coagulation factor X (P00742 235-488 limits assumed): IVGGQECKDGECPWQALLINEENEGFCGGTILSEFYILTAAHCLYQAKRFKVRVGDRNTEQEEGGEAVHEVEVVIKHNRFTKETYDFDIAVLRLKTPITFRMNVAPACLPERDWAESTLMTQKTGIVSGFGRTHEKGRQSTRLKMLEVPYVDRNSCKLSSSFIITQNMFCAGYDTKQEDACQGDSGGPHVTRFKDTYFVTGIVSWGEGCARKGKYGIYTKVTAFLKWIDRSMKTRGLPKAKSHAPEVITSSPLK

Row | Structure (SMILES) | IC50 [µM]
1 | CC(=O)N[C@H]1Cc2ccc(cc2)OCC=CCNC(=O)C[C@@H](C(=O)N[C@@H](CCCNC(=N)N)C(=O)c2nc3ccccc3s2)NC(=O)[C@H](CC(C)C)NC1=O | > 20
2 | CC(=O)N[C@H]1Cc2ccc(cc2)OCC=CCNC(=O)CC[C@@H](C(=O)N[C@@H](CCCNC(=N)N)C(=O)c2nc3ccccc3s2)NC(=O)[C@H](CC(C)C)NC1=O | > 20

From BindingDB's records for PubMed 38477709 (Washington University School of Medicine)
